# Laboratory results: the supplement of paper PMC10307832
# Tests used:
# Assay in all cases: relative viability (nuclei count vs DMSO), 5 days (fraction); higher = more cells survive
# KIN001-266 + Foretinib = compound: CCN1CCC(CC1)N2C=C(N=N2)CNC3=CC4=C(C(=CN=C4C(=C3)Cl)C#N)NC5=CC(=C(C=C5)F)Cl [KIN001-266] + COc1cc2c(Oc3ccc(NC(=O)C4(C(=O)Nc5ccc(F)cc5)CC4)cc3F)ccnc2cc1OCCCN1CCOCC1 [Foretinib] (partner 0.25 µM)
# Summary of the method: (§1)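 One day after seeding in 1536-well plates, lung cancer cell lines were dosed by pin tool. Dosing was either single-drug or a fixed anchor-drug dose plus five library-drug doses (not always all listed) in √10 steps. After 5 days, nuclei were stained in one fix-and-stain step and counted on 4× images, and relative viability is the nuclei count of treated wells over that of vehicle wells, given as the median of duplicate plates.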
# KIN001-266 + Dasatinib = compound: CCN1CCC(CC1)N2C=C(N=N2)CNC3=CC4=C(C(=CN=C4C(=C3)Cl)C#N)NC5=CC(=C(C=C5)F)Cl [KIN001-266] + Cc1nc(Nc2ncc(C(=O)Nc3c(C)cccc3Cl)s2)cc(N2CCN(CCO)CC2)n1 [Dasatinib] (partner 0.075 µM)
# Summary of the method: as §1
# KIN001-266 + Luminespib = compound: CCN1CCC(CC1)N2C=C(N=N2)CNC3=CC4=C(C(=CN=C4C(=C3)Cl)C#N)NC5=CC(=C(C=C5)F)Cl [KIN001-266] + CCNC(=O)c1noc(-c2cc(C(C)C)c(O)cc2O)c1-c1ccc(CN2CCOCC2)cc1 [Luminespib] (partner 0.01 µM)
# Summary of the method: as §1
# KIN001-266 + Decitabine = compound: CCN1CCC(CC1)N2C=C(N=N2)CNC3=CC4=C(C(=CN=C4C(=C3)Cl)C#N)NC5=CC(=C(C=C5)F)Cl [KIN001-266] + Nc1ncn([C@H]2C[C@H](O)[C@@H](CO)O2)c(=O)n1 [Decitabine] (partner 2 µM)
# Summary of the method: as §1
Cell Line,relative viability (KIN001-266 + Foretinib; first compound 0.08 µM),relative viability (KIN001-266 + Foretinib; first compound 0.253 µM),relative viability (KIN001-266 + Foretinib; first compound 0.8 µM),relative viability (KIN001-266 + Foretinib; first compound 2.53 µM),relative viability (KIN001-266 + Foretinib; first compound 8 µM),relative viability (KIN001-266 + Dasatinib; first compound 0.08 µM),relative viability (KIN001-266 + Dasatinib; first compound 0.253 µM),relative viability (KIN001-266 + Dasatinib; first compound 0.8 µM),relative viability (KIN001-266 + Dasatinib; first compound 2.53 µM),relative viability (KIN001-266 + Dasatinib; first compound 8 µM),relative viability (KIN001-266 + Luminespib; first compound 0.08 µM),relative viability (KIN001-266 + Luminespib; first compound 0.253 µM),relative viability (KIN001-266 + Luminespib; first compound 0.8 µM),relative viability (KIN001-266 + Luminespib; first compound 2.53 µM),relative viability (KIN001-266 + Luminespib; first compound 8 µM),relative viability (KIN001-266 + Decitabine; first compound 0.08 µM),relative viability (KIN001-266 + Decitabine; first compound 0.253 µM),relative viability (KIN001-266 + Decitabine; first compound 0.8 µM),relative viability (KIN001-266 + Decitabine; first compound 2.53 µM),relative viability (KIN001-266 + Decitabine; first compound 8 µM)
LOU-NH91,0.943,0.924,0.623,0.804,0.724,0.553,0.531,0.39,0.516,0.435,0.35,0.312,0.286,0.337,0.391,0.796,0.82,0.728,0.767,0.701
LU99A,0.84,0.842,0.754,0.735,0.535,0.726,0.514,0.505,0.428,0.425,0.265,0.216,0.217,0.243,0.228,0.976,1.01,0.9,0.613,0.607
LXF-289,0.936,0.945,0.963,0.997,1.07,0.24,0.193,0.232,0.261,0.203,0.633,0.72,0.72,0.705,0.794,0.379,0.365,0.369,0.34,0.414
NCI-H23,0.924,0.83,0.975,0.995,0.862,0.867,0.86,0.917,0.683,0.85,0.201,0.185,0.182,0.239,0.226,0.332,0.297,0.311,0.311,0.256
NCI-H322M,0.942,0.96,1.03,0.962,0.864,0.272,0.27,0.265,0.238,0.242,0.86,0.576,1.05,0.83,0.926,0.733,0.745,0.74,0.648,0.672
NCI-H358,0.728,0.734,0.629,0.631,0.397,0.148,0.171,0.173,0.137,0.116,0.496,0.251,0.237,0.306,0.123,0.209,0.219,0.197,0.212,0.173
NCI-H441,1.04,0.889,1.02,0.781,0.689,0.655,0.836,0.64,0.658,0.362,0.32,0.354,0.328,0.286,0.302,0.284,0.205,0.242,0.211,0.279
NCI-H460,1.01,0.973,1.02,0.936,0.941,0.659,0.513,0.531,0.45,0.496,0.0348,0.0385,0.0335,0.0269,0.0404,0.483,0.477,0.475,0.433,0.438
NCI-H520,0.67,0.668,0.69,0.487,0.638,0.209,0.208,0.187,0.168,0.194,0.246,0.289,0.228,0.192,0.22,0.538,0.548,0.576,0.474,0.459
NCI-H596,0.963,0.986,0.901,0.775,0.737,0.607,0.586,0.539,0.583,0.63,0.922,1.03,1.08,1.03,0.905,1.13,1.19,0.967,1.07,0.99
NCI-H647,1.22,1.22,1.36,1.16,0.97,0.249,0.268,0.181,0.152,0.15,0.162,0.138,0.419,0.179,0.153,0.4,0.385,0.344,0.357,0.336
NCI-H650,1.07,1.02,0.98,1.04,0.988,0.609,0.531,0.455,0.451,0.517,0.847,0.902,0.838,0.822,0.81,0.346,0.337,0.309,0.319,0.306
NCI-H661,1.02,1,1.03,0.954,0.946,0.897,1.01,0.847,0.894,0.657,0.887,0.946,0.968,0.915,0.559,0.628,0.554,0.506,0.509,0.504
NCI-H727,0.883,0.855,0.821,0.888,0.649,0.473,0.468,0.323,0.342,0.261,0.359,0.316,0.346,0.246,0.514,0.9,0.954,0.744,0.755,0.643
NCI-H838,1.03,1.09,1.06,0.928,0.717,0.275,0.267,0.338,0.26,0.282,0.27,0.284,0.328,0.2,0.186,0.476,0.488,0.454,0.423,0.371
NCI-H1355,0.922,0.956,0.924,0.918,0.88,0.734,0.7,0.663,0.691,0.662,0.741,0.642,0.811,0.691,0.722,0.365,0.352,0.357,0.374,0.346

Cell Line,relative viability (KIN001-266 + Foretinib; first compound 0.08 µM),relative viability (KIN001-266 + Foretinib; first compound 0.253 µM),relative viability (KIN001-266 + Foretinib; first compound 0.8 µM),relative viability (KIN001-266 + Foretinib; first compound 2.53 µM),relative viability (KIN001-266 + Foretinib; first compound 8 µM),relative viability (KIN001-266 + Dasatinib; first compound 0.08 µM),relative viability (KIN001-266 + Dasatinib; first compound 0.253 µM),relative viability (KIN001-266 + Dasatinib; first compound 0.8 µM),relative viability (KIN001-266 + Dasatinib; first compound 2.53 µM),relative viability (KIN001-266 + Dasatinib; first compound 8 µM),relative viability (KIN001-266 + Luminespib; first compound 0.08 µM),relative viability (KIN001-266 + Luminespib; first compound 0.253 µM),relative viability (KIN001-266 + Luminespib; first compound 0.8 µM),relative viability (KIN001-266 + Luminespib; first compound 2.53 µM),relative viability (KIN001-266 + Luminespib; first compound 8 µM),relative viability (KIN001-266 + Decitabine; first compound 0.08 µM),relative viability (KIN001-266 + Decitabine; first compound 0.253 µM),relative viability (KIN001-266 + Decitabine; first compound 0.8 µM),relative viability (KIN001-266 + Decitabine; first compound 2.53 µM),relative viability (KIN001-266 + Decitabine; first compound 8 µM)
NCI-H1395,0.984,0.93,0.952,0.939,0.914,0.413,0.388,0.43,0.418,0.429,0.829,0.76,0.619,0.545,0.659,0.731,0.687,0.75,0.687,0.758
NCI-H1437,1.21,1.28,1.26,1.35,1.04,0.413,0.421,0.346,0.369,0.249,1.08,1.13,1.1,1.09,0.854,0.564,0.542,0.556,0.504,0.567
NCI-H1650,1.25,0.951,0.947,0.773,0.476,0.313,0.356,0.238,0.288,0.224,0.193,0.207,0.196,0.177,0.203,0.396,0.43,0.426,0.544,0.388
NCI-H1651,0.805,0.71,0.774,0.757,0.731,0.43,0.421,0.388,0.472,0.411,0.845,0.936,0.753,0.861,0.593,0.629,0.599,0.546,0.572,0.634
NCI-H1666,0.954,0.95,0.938,0.92,0.892,0.798,0.811,0.784,0.833,0.804,0.982,0.993,1.02,0.951,0.923,0.806,0.737,0.662,0.725,0.754
NCI-H1734,0.951,0.801,0.704,0.813,0.798,0.474,0.466,0.43,0.419,0.401,0.196,0.195,0.191,0.19,0.193,0.513,0.512,0.421,0.48,0.433
NCI-H1755,0.96,0.913,0.894,0.862,0.83,0.415,0.387,0.471,0.478,0.451,0.339,0.799,0.389,0.445,0.418,0.67,0.735,0.647,0.654,0.707
NCI-H1793,0.598,0.812,0.718,0.883,0.705,0.332,0.389,0.391,0.329,0.369,0.231,0.436,0.171,0.194,0.196,0.574,0.463,–,0.476,0.364
NCI-H1915,1.14,1.06,1.07,1.13,1.11,0.369,0.316,0.357,0.396,0.292,0.827,0.684,0.791,0.79,0.783,0.28,0.287,0.249,0.265,0.278
NCI-H1944,0.898,0.806,0.886,0.911,0.882,0.244,0.215,0.187,0.214,0.209,0.73,0.771,0.708,0.744,0.68,0.421,0.459,0.401,0.415,0.393
NCI-H1975,0.972,0.96,0.966,1.05,1.04,0.396,0.355,0.344,0.388,0.319,0.26,0.187,0.276,0.221,0.215,0.391,0.373,0.377,0.404,0.39
NCI-H1993,0.86,0.777,0.758,0.749,0.675,0.767,0.621,0.521,0.553,0.568,0.872,1.02,0.705,0.736,0.533,0.66,0.563,0.415,0.579,0.607
NCI-H2009,1.15,1.16,1.28,1.23,1.03,0.382,0.313,0.302,0.274,0.201,1.04,0.969,1.05,0.983,0.881,0.394,0.367,0.437,0.357,0.391
NCI-H2023,0.837,0.959,1.02,0.919,0.556,0.608,0.555,0.63,0.526,0.533,0.738,0.698,0.764,0.696,0.865,0.21,0.217,0.217,0.216,0.289
NCI-H2085,1.06,1.01,0.731,0.939,0.954,0.221,0.234,0.241,0.239,0.244,0.412,0.437,0.404,0.434,0.429,0.567,0.57,0.517,0.474,0.499
